The values that follow come from PubChem BioAssay (NCI).

What all share (experiment): NCI tumour cell line growth inhibition, 48 h
Experiment [1] has as its system MDA-MB-435.
Experiment [2] deals with PC-3 prostate.
Experiment [3] has as its system RXF 393 renal.
Experiment [4] has as its system NCI-H23 lung.
The subject of experiment [5] is U251 CNS.
The test system of experiment [6] is MDA-MB-231 breast.
For experiment [7], the system named is NCI-H522 lung.
Experiment [8] relates to UACC-62 melanoma.
The subject of experiment [9] is T-47D breast.
For experiment [10], the system named is K-562 leukemia.
In experiment [11] the test system is SN12C renal.
Experiment [12] concerns ACHN renal.
Experiment [13] concerns NCI-H460 lung.
Experiment [14] concerns HT29 colon.
Experiment [15] has as its system SK-MEL-2 melanoma.
For experiment [16], the system named is HCT-15 colon.
In experiment [17] the test system is HOP-92 NSCLC.
For experiment [18], the system named is DU-145 prostate.
For experiment [19], the system named is SR leukemia.
The test system of experiment [20] is SNB-19 CNS.

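Interpolation was linear, between the two tested concentrations surrounding the appropriate level; five concentrations were tested over 48 hours in 96-well plates. The concentration for full growth arrest is given as TGI.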

For the molecule `C[C@H](CCc1nc(C#N)c(N)o1)[C@H]1CC[C@H]2[C@@H]3[C@@H](O)CC4C[C@@H](O)CC[C@]4(C)[C@H]3C[C@@H](O)[C@]12C` (stereo not given in full), the TGI was found to be 48.8 µM in experiment [1]; 49.1 µM in experiment [2]; 35.9 µM in experiment [3]; 58.5 µM in experiment [4]; 49.5 µM in [5]; 67.1 µM in experiment [6]. The TGI in [7] is 18.4 µM; in experiment [8], 30.5 µM; in experiment [9], 85.6 µM; in [10], 86.4 µM; in experiment [11], above 79.6 µM; in experiment [12], above 90 µM. The TGI was 54.9 µM in experiment [13]; 45.6 µM in experiment [14]; 45.1 µM in experiment [15]; above 93 µM in [16]; 67 µM in experiment [17]; above 76.3 µM in [18]. The TGI was above 61.8 µM in [19] and 57.5 µM in experiment [20].
For the molecule `CCCCNc1nc(SC)nc2nc[nH]c12`, the TGI in experiment [1], in experiment [2], in experiment [3], in [4], in experiment [5] and in experiment [6] was above 100 µM in each case. Besides, the TGI in experiment [7], in experiment [8], in [9], in [10], in [11] and in experiment [12] was above 100 µM throughout. The TGI in [13], in experiment [14], in [15], in [16], in experiment [17] and in experiment [18] was above 100 µM throughout. The TGI in [19] and in experiment [20] was above 100 µM throughout.
For `COC(=O)[C@]1(c2cc3ccccc3n2S(=O)(=O)c2ccccc2)CC2CCC1NC2` (stereo not given in full), the TGI in experiment [1] stood at 27.4 µM; in experiment [2] it was 24.5 µM; in experiment [3], 25.7 µM; in experiment [4] it was 40.1 µM; in [5], 26.4 µM; in experiment [6], 27.1 µM. Besides, the TGI in experiment [7] was determined as 30.6 µM; in [8], 29.5 µM; in [9], 27.2 µM; in experiment [10], 24.4 µM; in [11], 29.4 µM; in [12], 51.3 µM. Moreover, the TGI was 26.9 µM in experiment [13]; 25.7 µM in experiment [14]; 31.7 µM in experiment [15]; 40.5 µM in experiment [16]; 24.4 µM in experiment [17]; 30.4 µM in experiment [18]. The TGI in [19] worked out at 19.2 µM; in experiment [20], 28 µM.
Turning to `CC(C)(C)OC(=O)C(C1NC(C(=O)O)C(C)(C)S1)N1C(=O)c2ccccc2C1=O` (stereo not given), the TGI in [1], in experiment [2], in experiment [3], in experiment [4], in experiment [5] and in experiment [6] was above 100 µM in each case. The TGI in experiment [7], in [8], in experiment [9], in experiment [10], in experiment [11] and in experiment [12] was above 100 µM throughout. Further, the TGI in [13], in experiment [14], in experiment [15], in [16], in [17] and in experiment [18] was above 100 µM throughout. Moreover, the TGI in [19] and in experiment [20] was above 100 µM throughout.
On to `COc1cc(CNC(=O)CCCCCCCC/C=C/Br)ccc1O`, for which the TGI in experiment [1], in experiment [2], in experiment [3], in experiment [4], in [5] and in [6] was above 10 µM throughout. For the same molecule, the TGI in [7], in experiment [8], in [9], in [10], in experiment [11] and in [12] was above 10 µM each time. Besides, the TGI in experiment [13], in experiment [14], in experiment [15], in [16], in experiment [17] and in experiment [18] was above 10 µM each time. In addition, the TGI in experiment [19] and in experiment [20] was above 10 µM throughout.
For `CC1C(c2ccccc2O)c2cc3c(cc2OC1N1CCCC1)OCO3` (stereo not given), the TGI is 81.9 µM in experiment [1]; 98.8 µM in experiment [2]; 31.8 µM in experiment [3]; above 100 µM in experiment [4]; above 100 µM in experiment [5]; 61.2 µM in experiment [6]. The TGI was 70.3 µM in experiment [7]; above 100 µM in experiment [8]; above 100 µM in experiment [9]; 41.8 µM in experiment [10]; 35.8 µM in experiment [11]; above 100 µM in [12]. Further, the TGI in [13] was 32.4 µM; in experiment [14] it was 30.8 µM; in experiment [15], 80 µM; in [16] it was above 100 µM; in experiment [17], 69.3 µM; in [18] it was above 100 µM. Also, the TGI in [19] was 54.2 µM; in experiment [20], above 100 µM.
Turning to `Cc1cccc(C)c1NC(=S)/N=C/C1=C(O)c2ccccc2C1=O`, the TGI is above 80.1 µM in experiment [1]; above 100 µM in [2]; above 100 µM in experiment [3]; 59.2 µM in [4]; above 100 µM in experiment [5]; above 100 µM in experiment [6]. In addition, the TGI was 17.9 µM in experiment [7]; above 70.8 µM in [8]; above 100 µM in [9]; above 100 µM in [10]; above 100 µM in experiment [11]; above 100 µM in experiment [12]. The TGI is above 100 µM in experiment [13]; above 79.2 µM in experiment [14]; above 83.3 µM in experiment [15]; above 100 µM in [16]; above 65.8 µM in experiment [17]; above 100 µM in experiment [18]. The TGI in experiment [19] was 8.19 µM; in experiment [20], above 100 µM.
